Reference: patent US11596639B2, “Substituted indole Mcl-1 inhibitors” (Vanderbilt University, priority 2016, dated 2023)
Read-outs that look alike come from different tables or passages of the source.

Assays:
Mcl-1 = Mcl-1 (Homo sapiens (Human), UniProt Q07820); assay: TR-FRET binding assay, FITC-Bak peptide and MBP-tagged Mcl-1; conditions: read-out: Ki for Inhibition of Mcl-1 by TR-FRET assay
Description: Compounds are diluted in DMSO in a 16-point, semilog serial dilution scheme. […] The plate was mixed and incubated for 3 hours at room temperature. […] TR-FRET signal is plotted and IC50 and Ki values are calculated in the same manner as the fluorescence polarization anisotropy based competition assays.

[1] = test system: H929 human cancer cell lines; assay: Cellular viability / proliferation (Cell TiterGlo, 72 h); assay type: cell-based
Outline: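 1,000 cells/well, 10% FBS medium; compound added at 24 h, 2-fold dilutions from 50 μM top, DMSO <1% final. 72 h exposure, CellTiterGlo 30 min RT dark, luminescence read. IC50 by 4-parameter fit.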

[2] = Homo sapiens, NCI-H929, 72 h, read-out: GI50 on cellular proliferation of H929 human cancer cell lines, H929 cells, 72 h, Cell TiterGlo, 10% FBS
[3] = H929 cells, 72 h, Cell TiterGlo, 10% FBS, read-out: GI50 on cellular proliferation of H929 human cancer cell lines

Chain of Mcl-1 (Q07820 172-327): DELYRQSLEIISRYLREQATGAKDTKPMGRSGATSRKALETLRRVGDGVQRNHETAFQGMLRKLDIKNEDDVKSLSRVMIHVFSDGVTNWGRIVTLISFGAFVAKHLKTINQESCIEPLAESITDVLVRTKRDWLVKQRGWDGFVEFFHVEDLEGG

| SMILES | Ki (Mcl-1) | GI50 [1, 2] | GI50 [1, 3] |
| --- | --- | --- | --- |
| Cc1cc(OCCCc2c3n(c4c(-c5c(C)nn(C)c5C)c(Cl)ccc24)[C@H](C)CN(c2cn(C)c4ccc(-c5ncn(-c6ncccn6)n5)cc24)C3=O)cc(C)c1Cl [Example 646, (R)-7-Chloro-10-(3-(4-chloro-3,5-dimethylphenoxy)propyl)-4-methyl-2-(1-methyl-5-(1-(pyrimidin-2-yl)-1H-1,2,4-triazol-3-yl)-1H-indol-3-yl)-6-(1,3,5-trimethyl-1H-pyrazol-4-yl)-3,4-dihydropyrazino[1,2-a]indol-1(2H)-one] | 0.3 nM | 240 nM |  |
| Cc1cc(OCCCc2c3n(c4c(-c5c(C)ncnc5C)c(Cl)ccc24)[C@H](C)CN(c2cn(C)c4ccc(-c5ncn(C)n5)cc24)C3=O)cc(C)c1Cl [Example 574, (R)-7-Chloro-10-(3-(4-chloro-3,5-dimethylphenoxy)propyl)-6-(4,6-dimethylpyrimidin-5-yl)-4-methyl-2-(1-methyl-5-(1-methyl-1H-1,2,4-triazol-3-yl)-1H-indol-3-yl)-3,4-dihydropyrazino[1,2-a]indol-1(2H)-one] | 2.4 nM | 270 nM |  |
| COCCn1c(C(=O)O)cc2c(OC)ccc(N3C[C@@H](C)n4c(c(CCCOc5cc(C)c(Cl)c(C)c5)c5ccc(Cl)c(-c6c(C)nn(C)c6C)c54)C3=O)c21 [Example 587, (R)-7-(7-chloro-10-(3-(4-chloro-3,5-dimethylphenoxy)propyl)-4-methyl-1-oxo-6-(1,3,5-trimethyl-1H-pyrazol-4-yl)-3,4-dihydropyrazino[1,2-a]indol-2(1H)-yl)-4-methoxy-1-(2-methoxyethyl)-1H-indole-2-carboxylic acid] | < 0.2 nM | < 200 nM |  |
| Cc1cc(OCCCc2c3n(c4c(-c5c(C)nn(C)c5C)c(Cl)ccc24)[C@H](C)CN(c2cn(C)c4ccc(C(=O)O)nc24)C3=O)cc(C)c1Cl [Example 489, (R)-3-(7-Chloro-10-(3-(4-chloro-3,5-dimethylphenoxy)propyl)-4-methyl-1-oxo-6-(1,3,5-trimethyl-1H-pyrazol-4-yl)-3,4-dihydropyrazino[1,2-a]indol-2(1H)-yl)-1-methyl-1H-pyrrolo[3,2-b]pyridine-5-carboxylic acid] | < 0.2 nM | < 200 nM |  |
| COCCOCCOc1cc(N2C[C@@H](C)n3c(c(CCCOc4cc(C)c(Cl)c(C)c4)c4ccc(Cl)c(-c5c(C)ncnc5C)c43)C2=O)c2c(c1)cc(C(=O)O)n2C [Example 631, (R)-7-(7-chloro-10-(3-(4-chloro-3,5-dimethylphenoxy)propyl)-6-(4,6-dimethylpyrimidin-5-yl)-4-methyl-1-oxo-3,4-dihydropyrazino[1,2-a]indol-2(1H)-yl)-5-(2-(2-methoxyethoxy)ethoxy)-1-methyl-1H-indole-2-carboxylic acid] | < 0.2 nM | 300 nM |  |
| Cc1cc(OCCCc2c3n(c4c(-c5c(C)nn(C)c5C)c(Cl)ccc24)[C@H](C)CN(c2cc(C(=O)O)cc4cc(C(=O)O)n(C)c24)C3=O)cc(C)c1Cl [Example 697, (R)-7-(7-chloro-10-(3-(4-chloro-3,5-dimethylphenoxy)propyl)-4-methyl-1-oxo-6-(1,3,5-trimethyl-1H-pyrazol-4-yl)-3,4-dihydropyrazino[1,2-a]indol-2(1H)-yl)-1-methyl-1H-indole-2,5-dicarboxylic acid] | < 0.2 nM | 2000 nM |  |
| Cc1cc(OCCCc2c3n(c4c(-c5c(C)nn(C)c5C)c(Cl)ccc24)[C@H](C)CN(c2cn(C)c4ccc(-c5nn[nH]n5)nc24)C3=O)cc(C)c1Cl [Example 687, (R)-7-chloro-10-(3-(4-chloro-3,5-dimethylphenoxy)propyl)-4-methyl-2-(1-methyl-5-(2H-tetrazol-5-yl)-1H-pyrrolo[3,2-b]pyridin-3-yl)-6-(1,3,5-trimethyl-1H-pyrazol-4-yl)-3,4-dihydropyrazino[1,2-a]indol-1(2H)-one] | < 0.2 nM | 330 nM |  |
| COCCOCCn1c(C(=O)O)cc2cc(C)cc(N3C[C@@H](C)n4c(c(CCCOc5cc(C)c(Cl)c(C)c5)c5ccc(Cl)c(-c6c(C)nn(C)c6C)c54)C3=O)c21 [Example 678, (R)-7-(7-chloro-10-(3-(4-chloro-3,5-dimethylphenoxy)propyl)-4-methyl-1-oxo-6-(1,3,5-trimethyl-1H-pyrazol-4-yl)-3,4-dihydropyrazino[1,2-a]indol-2(1H)-yl)-1-(2-(2-methoxyethoxy)ethyl)-5-methyl-1H-indole-2-carboxylic acid] | 0.22 nM | < 200 nM |  |
| Cc1cc(OCCCc2c3n(c4c(-c5c(C)nn(C)c5C)c(Cl)ccc24)[C@H](C)CN(c2cc(NCCN(C)C)cc4c(C(=O)O)cn(C)c24)C3=O)cc(C)c1Cl [Example 498, (R)-7-(7-chloro-10-(3-(4-chloro-3,5-dimethylphenoxy)propyl)-4-methyl-1-oxo-6-(1,3,5-trimethyl-1H-pyrazol-4-yl)-3,4-dihydropyrazino[1,2-a]indol-2(1H)-yl)-5-((2-(dimethylamino)ethyl)amino)-1-methyl-1H-indole-3-carboxylic acid] | 0.58 nM | 1900 nM |  |
| Cc1cc(OCCCc2c3n(c4c(-c5c(C)nn(C)c5C)c(Cl)ccc24)[C@H](C)CN(c2cc(OCCN(C)C)cc4cc(C(=O)O)n(Cc5ccccn5)c24)C3=O)cc(C)c1Cl [Example 590, (R)-7-(7-chloro-10-(3-(4-chloro-3,5-dimethylphenoxy)propyl)-4-methyl-1-oxo-6-(1,3,5-trimethyl-1H-pyrazol-4-yl)-3,4-dihydropyrazino[1,2-a]indol-2(1H)-yl)-5-(2-(dimethylamino)ethoxy)-1-(pyridin-2-ylmethyl)-1H-indole-2-carboxylic acid] | < 0.2 nM | 670 nM |  |
| Cc1cc(OCCCc2c3n(c4c(-c5c(C)nn(C)c5C)c(Cl)ccc24)[C@H](C)CN(c2cn(CCN4CCCC4)c4ccc(-c5ncccn5)cc24)C3=O)cc(C)c1Cl [Example 567, (R)-7-Chloro-10-(3-(4-chloro-3,5-dimethylphenoxy)propyl)-4-methyl-2-(5-(pyrimidin-2-yl)-1-(2-(pyrrolidin-1-yl)ethyl)-1H-indol-3-yl)-6-(1,3,5-trimethyl-1H-pyrazol-4-yl)-3,4-dihydropyrazino[1,2-a]indol-1(2H)-one] | 9.6 nM | 930 nM |  |
| Cc1cc(OCCCc2c3n(c4c(-c5c(C)nn(C)c5C)c(Cl)ccc24)[C@H](C)CN(c2cc(OC4CCN(C)CC4)cc4cc(C(=O)O)n(C)c24)C3=O)cc(C)c1Cl [Example 519, (R)-7-(7-chloro-10-(3-(4-chloro-3,5-dimethylphenoxy)propyl)-4-methyl-1-oxo-6-(1,3,5-trimethyl-1H-pyrazol-4-yl)-3,4-dihydropyrazino[1,2-a]indol-2(1H)-yl)-1-methyl-5-((1-methylpiperidin-4-yl)oxy)-1H-indole-2-carboxylic acid] | 0.46 nM | 990 nM |  |
| COCCOc1cc(N2C[C@@H](C)n3c(c(CCCOc4cc(C)c(Cl)c(C)c4)c4ccc(Cl)c(-c5c(C)nn(C)c5C)c43)C2=O)c2c(c1)c(C(=O)O)cn2C [Example 654, (R)-7-(7-chloro-10-(3-(4-chloro-3,5-dimethylphenoxy)propyl)-4-methyl-1-oxo-6-(1,3,5-trimethyl-1H-pyrazol-4-yl)-3,4-dihydropyrazino[1,2-a]indol-2(1H)-yl)-5-(2-methoxyethoxy)-1-methyl-1H-indole-3-carboxylic acid] | 0.34 nM | 340 nM |  |
| Cc1cc(OCCCc2c3n(c4c(-c5c(C)nn(C)c5C)c(Cl)ccc24)[C@H](C)CN(c2cn(C)c4ccc(-n5nnnc5C)nc24)C3=O)cc(C)c1Cl [Example 679, (R)-7-Chloro-10-(3-(4-chloro-3,5-dimethylphenoxy)propyl)-4-methyl-2-(1-methyl-5-(5-methyl-JH-tetrazol-1-yl)-1H-pyrrolo[3,2-b]pyridin-3-yl)-6-(1,3,5-trimethyl-1H-pyrazol-4-yl)-3,4-dihydropyrazino[1,2-a]indol-1(2H)-one] | 3.1 nM |  | 940 nM |
| COCCn1cnc(-c2ccc3c(c2)c(N2C[C@@H](C)n4c(c(CCCOc5cc(C)c(Cl)c(C)c5)c5ccc(Cl)c(-c6c(C)nn(C)c6C)c54)C2=O)cn3C)n1 [Example 530, (R)-7-Chloro-10-(3-(4-chloro-3,5-dimethylphenoxy)propyl)-2-(S-(1-(2-methoxyethyl)-1H-1,2,4-triazol-3-yl)-1-methyl-1H-indol-3-yl)-4-methyl-6-(1,3,5-trimethyl-1H-pyrazol-4-yl)-3,4-dihydropyrazino[1,2-a]indol-1(2H)-one] | < 0.2 nM |  | 230 nM |
| Cc1cc(N2C[C@@H](C)n3c(c(CCCOc4cc(C)c(Cl)c(C)c4)c4ccc(Cl)c(-c5c(C)nn(C)c5C)c43)C2=O)c2c(c1)cc(C(=O)O)n2Cc1cccc(N2CCCCC2)n1 [Example 505, (R)-7-(7-Chloro-10-(3-(4-chloro-3,5-dimethylphenoxy)propyl)-4-methyl-1-oxo-6-(1,3,5-trimethyl-1H-pyrazol-4-yl)-3,4-dihydropyrazino[1,2-a]indol-2(1H)-yl)-5-methyl-1-((6-(piperidin-1-yl)pyridin-2-yl)methyl)-1H-indole-2-carboxylic acid] | 1.3 nM | 3200 nM |  |
| Cc1cc(N2C[C@@H](C)n3c(c(CCCOc4cc(C)c(Cl)c(C)c4)c4ccc(Cl)c(-c5c(C)ncnc5C)c43)C2=O)c2c(c1)cc(C(=O)O)n2Cc1cccc(C)n1 [Example 576, (R)-7-(7-chloro-10-(3-(4-chloro-3,5-dimethylphenoxy)propyl)-6-(4,6-dimethylpyrimidin-5-yl)-4-methyl-1-oxo-3,4-dihydropyrazino[1,2-a]indol-2(1H)-yl)-5-methyl-1-((6-methylpyridin-2-yl)methyl)-1H-indole-2-carboxylic acid] | < 0.2 nM | 350 nM |  |
